{"source": "patent US11702632B2", "about": "“Ex vivo method of generating super regulatory T cells for the prevention of autoimmune disease” (University of Massachusetts, priority 2017, dated 2023)", "tested_on": "humanized mouse model of GvHD", "experiment": "Ex vivo-treated hPBMCs transferred into NSG mice, assessment of GvHD", "format": "in vivo", "description": "Animal protocols were approved by the Institutional Animal Care and use Committee of the University of Massachusetts Amherst. […] 10×10^6 treated hPBMCs in 150 μl of PBS were injected into mice via the tail vein.\nClinical score was generated by adding grades for five criteria.\nIL-2 and IFNγ cytokine levels in plasma collected from NSG mice were determined by using human IFNγ and IL-2 Flex Sets (BD Biosciences). Data were acquired using a Fortessa 5 Laser Flow Cytometer (BD Biosciences) and analyzed using FCAP array software (Soft Flow Inc.)."}
{"smiles": "CC(=O)c1c(O)c(C)c(O)c(Cc2c(O)c3c(c(C(=O)/C=C/c4ccccc4)c2O)OC(C)(C)C=C3)c1O", "note": "[rottlerin, Rottlerin]", "values": [{"measurement": "mice without overt signs of disease", "setting": "hPBMCs pre-treated, no human cells detected on day +70", "result": "Two of three"}, {"measurement": "toxicity to hPBMCs", "setting": "pre-treated hPBMCs", "result": "cytotoxic effects on hPBMCs"}]}
